Results reported in the NIST ThermoML archive (doi:10.1016/j.fluid.2008.01.004).
± gives the expanded uncertainty stated by the source.

Assay: mn = molality of the nth substance listed, in mol/kg
Settings: 101 kPa, Liquid; for molar conductivity: digital conductivity meter; for speed of sound: Sing-around technique in a fixed-path interferometer

O=P([O-])([O-])[O-].[Na+].[Na+].[Na+] [trisodium phosphate] + O
Settings | mass density, 293.15 K [kg/m3] | mass density, 298.15 K [kg/m3] | mass density, 303.15 K [kg/m3] | molar conductivity, 293.15 K [S·m2/mol] | molar conductivity, 298.15 K [S·m2/mol] | molar conductivity, 303.15 K [S·m2/mol] | speed of sound, 298.15 K [m/s] | speed of sound, 303.15 K [m/s]
m1 = 0.0026 | – | – | – | – | 0.0415 ± 0.0017 | 0.0409 ± 0.0016 | – | –
m1 = 0.0039 | – | – | – | – | 0.0401 ± 0.0016 | 0.0404 ± 0.0016 | – | –
m1 = 0.0053 | – | – | – | – | 0.0392 ± 0.0016 | 0.0398 ± 0.0016 | – | –
m1 = 0.0089 | 999.952 ± 0.3 | 998.77 ± 0.3 | 997.355 ± 0.26 | – | – | – | 1499.3 ± 0.99 | 1511.7 ± 0.99
m1 = 0.0105 | 1000.27 ± 0.25 | 999.088 ± 0.25 | 997.668 ± 0.26 | – | 0.0359 ± 0.0014 | 0.0367 ± 0.0015 | 1499.8 ± 0.99 | 1512.1 ± 0.99
m1 = 0.0116 | 1000.49 ± 0.26 | 999.3 ± 0.26 | 997.879 ± 0.26 | – | – | – | 1500.2 ± 0.99 | 1512.5 ± 0.99
m1 = 0.0132 | 1000.8 ± 0.26 | 999.611 ± 0.26 | 998.187 ± 0.26 | – | 0.0347 ± 0.0014 | 0.0355 ± 0.0014 | 1500.5 ± 0.99 | 1512.8 ± 0.99
m1 = 0.0183 | 1001.83 ± 0.26 | 1000.62 ± 0.26 | 999.189 ± 0.25 | – | 0.0328 ± 0.0013 | 0.0333 ± 0.0013 | 1501.8 ± 0.99 | 1514.1 ± 0.99
m1 = 0.0234 | 1002.81 ± 0.26 | 1001.6 ± 0.26 | 1000.15 ± 0.25 | – | 0.031 ± 0.0012 | 0.0318 ± 0.0013 | 1503.3 ± 0.99 | 1515.6 ± 0.99
m1 = 0.0342 | 1004.92 ± 0.26 | 1003.68 ± 0.26 | 1002.22 ± 0.25 | – | 0.028 ± 0.0011 | 0.029 ± 0.0012 | 1505.8 ± 0.99 | 1518 ± 1
m1 = 0.045 | 1007.02 ± 0.26 | 1005.76 ± 0.26 | 1004.28 ± 0.26 | – | 0.0263 ± 0.0011 | 0.0274 ± 0.0011 | 1508.5 ± 0.99 | 1520.6 ± 1
m1 = 0.0563 | 1009.2 ± 0.26 | 1007.91 ± 0.26 | 1006.41 ± 0.26 | – | 0.025 ± 0.001 | 0.0259 ± 0.001 | 1511.1 ± 1 | 1523.2 ± 1
m1 = 0.0662 | 1011.09 ± 0.27 | 1009.78 ± 0.27 | 1008.27 ± 0.26 | – | 0.0239 ± 0.00096 | 0.0248 ± 0.00099 | 1513.4 ± 1 | 1525.5 ± 1
m1 = 0.0767 | – | – | – | – | 0.0231 ± 0.00092 | 0.0238 ± 0.00095 | – | –
m1 = 0.088 | 1015.29 ± 0.27 | 1013.95 ± 0.27 | 1012.39 ± 0.27 | – | 0.0221 ± 0.00089 | 0.023 ± 0.00092 | 1518.5 ± 1 | 1530.5 ± 1
m1 = 0.0968 | 1016.97 ± 0.27 | 1015.61 ± 0.27 | 1014.04 ± 0.27 | 0.0206 ± 0.00082 | 0.0217 ± 0.00087 | 0.0226 ± 0.0009 | 1520.6 ± 1 | 1532.4 ± 1
m1 = 0.1086 | 1019.2 ± 0.28 | 1017.82 ± 0.27 | 1016.24 ± 0.27 | 0.0201 ± 0.00081 | 0.0211 ± 0.00084 | 0.0216 ± 0.00086 | 1523.3 ± 1 | 1535 ± 1
m1 = 0.1133 | 1020.11 ± 0.28 | 1018.73 ± 0.28 | 1017.13 ± 0.27 | 0.0198 ± 0.00079 | 0.0207 ± 0.00083 | 0.0215 ± 0.00086 | 1524.3 ± 1 | 1536.1 ± 1
m1 = 0.1296 | 1023.21 ± 0.28 | 1021.79 ± 0.28 | 1020.18 ± 0.28 | 0.0189 ± 0.00076 | 0.0199 ± 0.0008 | 0.0208 ± 0.00083 | 1528 ± 1 | 1539.6 ± 1
m1 = 0.141 | 1025.39 ± 0.28 | 1023.96 ± 0.28 | 1022.32 ± 0.28 | 0.0185 ± 0.00074 | 0.0195 ± 0.00078 | 0.0201 ± 0.0008 | 1530.7 ± 1 | 1542.2 ± 1
m1 = 0.1515 | 1027.32 ± 0.29 | 1025.87 ± 0.28 | 1024.22 ± 0.28 | 0.0182 ± 0.00073 | 0.0193 ± 0.00077 | 0.0198 ± 0.00079 | 1532.9 ± 1 | 1544.4 ± 1
m1 = 0.1638 | 1029.67 ± 0.29 | 1028.19 ± 0.29 | 1026.53 ± 0.28 | 0.0181 ± 0.00073 | 0.0191 ± 0.00077 | 0.0198 ± 0.00079 | 1535.7 ± 1 | 1547.1 ± 1
m1 = 0.1755 | 1031.84 ± 0.3 | 1030.35 ± 0.29 | 1028.66 ± 0.29 | 0.0176 ± 0.0007 | 0.0186 ± 0.00074 | 0.0193 ± 0.00077 | 1538.3 ± 1 | 1549.6 ± 1
m1 = 0.1868 | 1034.01 ± 0.3 | 1032.5 ± 0.29 | 1030.8 ± 0.29 | 0.0172 ± 0.00069 | 0.018 ± 0.00072 | 0.0186 ± 0.00074 | 1540.8 ± 1 | 1552.1 ± 1
m1 = 0.1954 | 1035.55 ± 0.3 | 1034.03 ± 0.3 | 1032.32 ± 0.29 | 0.0171 ± 0.00068 | 0.0178 ± 0.00071 | 0.0182 ± 0.00073 | 1542.7 ± 1 | 1553.9 ± 1
m1 = 0.2224 | 1040.71 ± 0.31 | 1039.14 ± 0.31 | 1037.39 ± 0.3 | 0.0162 ± 0.00065 | 0.0169 ± 0.00067 | 0.0173 ± 0.00069 | 1548.8 ± 1 | 1559.9 ± 1
m1 = 0.2333 | 1042.76 ± 0.31 | 1041.17 ± 0.31 | 1039.41 ± 0.3 | 0.016 ± 0.00064 | 0.0168 ± 0.00067 | 0.0171 ± 0.00068 | 1551.2 ± 1 | 1562.2 ± 1
m1 = 0.2509 | 1045.97 ± 0.31 | 1044.36 ± 0.31 | 1042.57 ± 0.31 | 0.0157 ± 0.00063 | 0.0163 ± 0.00065 | 0.0167 ± 0.00067 | 1555 ± 1 | 1565.9 ± 1
